Measurements: article PMC9960759, “Discovery of New Boswellic Acid Hybrid 1H-1,2,3-Triazoles for Diabetic Management: In Vitro and In Silico Studies” (Pharmaceuticals, 2023)
Read-outs that look alike come from different tables or passages of the source.

Legend:
[1] = biological target: α-glucosidase (EC 3.2.1.20)
Method: The α-glucosidase (EC 3.2.1.20; Saccharomyces cerevisiae) assay was carried out using 50 mM of phosphate buffer (pH = 6.8). The test samples were dissolved in DMSO. The enzyme (1U/2mL) dissolved in phosphate buffer: 20 µL/well of enzyme, 20 µL/well of test samples, and 135 µL/well of phosphate buffer were employed in the 96-well plate. After adding all of these into the 96-well plate, followed by 15 min incubation at 37 °C, 25 µL/well of substrate para-nitro phenyl-α-D-glucopyranoside (0.7 mM) was added to the 96-well plate, and measurements were taken at 400 nm for 30 min using a spectrophotometer (xMarkTM Microplate, Bio-Rad, Hercules, CA, USA). As a control, 7% DMSO was employed. […] For mechanistic studies, a similar procedure was employed, with the addition of four different substrate concentrations: 0.1, 0.2, 0.4, and 0.8 µM. The percentage of inhibition was estimated using the following formula: % Inhibition=100×O.D. of test compound/O.D. of control−100

α-glucosidase = assay: Kinetic (mechanistic) studies of α-glucosidase inhibition; format: biochemical, Saccharomyces cerevisiae; conditions: for Ki: four substrate concentrations, Lineweaver–Burk / Dixon plots; for type of inhibition: kinetic studies
Method: In this type of inhibition, the inhibitor binds with the active site residue of enzyme and, therefore, Vmax remains the same, with an increase in the Km. […] In this type of inhibition, both inhibitors—Vmax and Km—are affected by Vmax decreases and Km increases. […] The test samples were dissolved in DMSO. […] (B) Secondary replot of Lineweaver–Burk plot between the slopes of each Lineweaver–Burk plot vs. different concentrations of compound 6f. (C) Dixon plot of reciprocal of rate of reaction (velocities) vs. different concentrations of compound 6f. […] (B) Secondary replot of Lineweaver–Burk plot between the slopes of each Lineweaver–Burk plot vs. different concentrations of compound 7h. (C) Dixon plot of reciprocal of rate of reaction (velocities) vs. different concentrations of compound 7h.

[2] = read-out: IC50, α-glucosidase-inhibitory activity
[3] = read-out: IC50 ± µM, in vitro α-glucosidase-inhibitory activity, Table 2, substrate p-nitrophenyl-α-D-glucopyranoside 0.7 mM, pH 6.8, 37 °C

| SMILES | IC50 [1, 2] [µM] | IC50 [1, 3] [µM] | Ki (α-glucosidase) [µM] | type of inhibition (α-glucosidase) |
| --- | --- | --- | --- | --- |
| C#CCOC(=O)C1(C)C(O)CCC2(C)C1CCC1(C)C2C(=O)C=C2C3C(C)C(C)CCC3(C)CCC21C (stereo not drawn) [compound 4, (Prop-2-yne-1-yl) 3α-hydroxy-11-oxo-urs-12-en-24-oate] | 5.32 ± 0.15 | – | – | – |
| CC(=O)OC1CCC2(C)C(CCC3(C)C2C(=O)C=C2C4C(C)C(C)CCC4(C)CCC23C)C1(C)C(=O)OCn1cc(-c2ccc(Br)cc2)nn1 (stereo not shown) [6h] | 0.69 | 0.69 ± 0.04 | – | – |
| CC(=O)OC1CCC2(C)C(CCC3(C)C2C(=O)C=C2C4C(C)C(C)CCC4(C)CCC23C)C1(C)C(=O)OCn1cc(-c2ccccc2)nn1 (stereo not drawn) [6a, (4-Phenyl-1H-1,2,3-triazol-1-yl) Methyl 3α-acetyloxy-11-oxo-urs-12-en-24-oate] | 2.02 ± 0.031 | 2.02 ± 0.03 | – | – |
| Cc1ccccc1-c1cn(COC(=O)C2(C)C(O)CCC3(C)C2CCC2(C)C3C(=O)C=C3C4C(C)C(C)CCC4(C)CCC32C)nn1 (stereo not drawn) [7b, (4-(Ortho-tolyl)-1H-1,2,3-triazol-1-yl) Methyl 3α-hydroxy-11-oxo-urs-12-en-24-oate] | 2.11 | 2.11 ± 0.1 | – | – |
| CC(=O)O[C@@H]1CC[C@@]2(C)[C@@H](CC[C@]3(C)[C@@H]2C(=O)C=C2[C@@H]4[C@@H](C)[C@H](C)CC[C@]4(C)CC[C@]23C)[C@@]1(C)C(=O)OCn1cc(-c2ccc(Cl)cc2)nn1 [7i] | 3.18 | 3.18 ± 0.69 | – | – |
| CC(=O)O[C@@H]1CC[C@@]2(C)[C@@H](CC[C@]3(C)[C@@H]2C(=O)C=C2[C@@H]4[C@@H](C)[C@H](C)CC[C@]4(C)CC[C@]23C)[C@@]1(C)C(=O)OCn1cc(-c2ccc(C(F)(F)F)cc2)nn1 [7k] | 1.39 | 1.39 ± 0.11 | – | – |
| CC(=O)O[C@@H]1CC[C@@]2(C)[C@@H](CC[C@]3(C)[C@@H]2C(=O)C=C2[C@@H]4[C@@H](C)[C@H](C)CC[C@]4(C)CC[C@]23C)[C@@]1(C)C(=O)OCn1cc(-c2ccc(Cl)cc2)nn1 [6i] | 3.06 | 3.06 ± 0.22 | – | – |
| C[C@H]1[C@H](C)CC[C@]2(C)CC[C@]3(C)C(=CC(=O)[C@@H]4[C@@]5(C)CC[C@@H](O)[C@](C)(C(=O)OCn6cc(-c7ccc(Br)cc7)nn6)[C@@H]5CC[C@]43C)[C@H]12 [7h] | 0.43 | 0.43 ± 0.05 | 1.18 ± 0.0012 | mixed |
| C[C@H]1[C@H](C)CC[C@]2(C)CC[C@]3(C)C(=CC(=O)[C@@H]4[C@@]5(C)CC[C@@H](O)[C@](C)(C(=O)OCn6cc(-c7cccc(Br)c7)nn6)[C@@H]5CC[C@]43C)[C@H]12 [7g] | 1.34 | 1.34 ± 0.02 | – | – |
| C#CCOC(=O)[C@]1(C)C2CC[C@]3(C)C(C(=O)C=C4[C@@H]5[C@@H](C)[C@H](C)CC[C@]5(C)CC[C@]43C)[C@@]2(C)CC[C@H]1OC(C)=O (stereo partly drawn) [compound 3, (Prop-2-yne-1-yl) 3α-acetyloxy-11-oxo-urs-12-en-24-oate] | 4.72 ± 0.52 | – | – | – |
| CC(=O)O[C@@H]1CC[C@@]2(C)[C@@H](CC[C@]3(C)[C@@H]2C(=O)C=C2[C@@H]4[C@@H](C)[C@H](C)CC[C@]4(C)CC[C@]23C)[C@@]1(C)C(=O)OCn1cc(-c2ccccc2C(F)(F)F)nn1 [7d] | 2.62 | 2.62 ± 0.06 | – | – |
| CC1CCC2(C)CCC3(C)C(=CC(=O)C4C5(C)CCC(O)C(C)(C(=O)OCn6cc(-c7cccc(C(F)(F)F)c7)nn6)C5CCC43C)C2C1C (stereo not shown) [7f] | 2.52 | 2.52 ± 0.12 | – | – |
| CC(=O)OC1CCC2(C)C(CCC3(C)C2C(=O)C=C2C4C(C)C(C)CCC4(C)CCC23C)C1(C)C(=O)OCn1cc(-c2cccc(C(F)(F)F)c2)nn1 (stereo not shown) [6f] | 0.22 | 0.22 ± 0.08 | 0.84 ± 0.007 | competitive |
| CC(=O)O[C@@H]1CC[C@@]2(C)[C@@H](CC[C@]3(C)[C@@H]2C(=O)C=C2[C@@H]4[C@@H](C)[C@H](C)CC[C@]4(C)CC[C@]23C)[C@@]1(C)C(=O)OCn1cc(-c2cccc(Br)c2)nn1 [6g] | 0.78 | 0.78 ± 0.01 | 0.84 ± 0.007 | competitive |
| CC(=O)O[C@@H]1CC[C@@]2(C)[C@@H](CC[C@]3(C)[C@@H]2C(=O)C=C2[C@@H]4[C@@H](C)[C@H](C)CC[C@]4(C)CC[C@]23C)[C@@]1(C)C(=O)OCn1cc(-c2ccccc2C)nn1 [6b, (4-(O-tolyl)-1H-1,2,3-triazol-1-yl) Methyl 3α-acetyloxy-11-oxo-urs-12-en-24-oate] | 2.25 ± 0.1 | 2.25 ± 0.1 | – | – |
| CC(=O)O[C@@H]1CC[C@@]2(C)[C@@H](CC[C@]3(C)[C@@H]2C(=O)C=C2[C@@H]4[C@@H](C)[C@H](C)CC[C@]4(C)CC[C@]23C)[C@@]1(C)C(=O)OCn1cc(-c2ccc(C(F)(F)F)cc2)nn1 [6k] | 1.26 | 1.26 ± 0.05 | – | – |
| CC(=O)O[C@@H]1CC[C@@]2(C)[C@@H](CC[C@]3(C)[C@@H]2C(=O)C=C2[C@@H]4[C@@H](C)[C@H](C)CC[C@]4(C)CC[C@]23C)[C@@]1(C)C(=O)OCn1cc(-c2ccc(F)cc2)nn1 [7j] | 2.64 | 2.64 ± 0.03 | – | – |
| COc1ccc(-c2cn(COC(=O)C3(C)C(OC(C)=O)CCC4(C)C3CCC3(C)C4C(=O)C=C4C5C(C)C(C)CCC5(C)CCC43C)nn2)cc1 (stereo not drawn) [6e, (4-(Para-methoxyphenyl)-1H-1,2,3-triazol-1-yl) Methyl 3α-acetyloxy-11-oxo-urs-12-en-24-oate] | 2.01 | 2.01 ± 0.09 | – | – |
| COc1ccccc1-c1cn(COC(=O)C2(C)C(OC(C)=O)CCC3(C)C2CCC2(C)C3C(=O)C=C3C4C(C)C(C)CCC4(C)CCC32C)nn1 (stereo not drawn) [6c, (4-(Ortho-methoxyphenyl)-1H-1,2,3-triazol-1-yl) Methyl 3α-acetyloxy-11-oxo-urs-12-en-24-oate] | 1.23 | 1.23 ± 0.08 | – | – |
| COc1ccc(-c2cn(COC(=O)C3(C)C(O)CCC4(C)C3CCC3(C)C4C(=O)C=C4C5C(C)C(C)CCC5(C)CCC43C)nn2)cc1 (stereo not drawn) [7e, (4-(Para-methoxyphenyl)-1H-1,2,3-triazol-1-yl) Methyl 3α-hydroxy-11-oxo-urs-12-en-24-oate] | 2.37 | 2.37 ± 0.07 | – | – |
| CC(=O)O[C@@H]1CC[C@@]2(C)[C@@H](CC[C@]3(C)[C@@H]2C(=O)C=C2[C@@H]4[C@@H](C)[C@H](C)CC[C@]4(C)CC[C@]23C)[C@@]1(C)C(=O)OCn1cc(-c2ccc(F)cc2)nn1 [6j] | 0.58 | 0.58 ± 0.04 | – | – |
| COc1ccccc1-c1cn(COC(=O)[C@@]2(C)[C@H](O)CC[C@@]3(C)[C@H]2CC[C@]2(C)[C@@H]3C(=O)C=C3[C@@H]4[C@@H](C)[C@H](C)CC[C@]4(C)CC[C@]32C)nn1 [7c, (4-(Ortho-methoxyphenyl)-1H-1,2,3-triazol-1-yl) Methyl 3α-hydroxy-11-oxo-urs-12-en-24-oate] | 2.18 | 2.18 ± 0.01 | – | – |
| CC1CCC2(C)CCC3(C)C(=CC(=O)C4C5(C)CCC(O)C(C)(C(=O)OCn6cc(-c7ccccc7)nn6)C5CCC43C)C2C1C (stereo not drawn) [7a, (4-Phenyl-1H-1,2,3-triazol-1-yl) Methyl 3α-hydroxy-11-oxo-urs-12-en-24-oate] | 2.31 | 2.31 ± 0.17 | – | – |
| CC(=O)O[C@@H]1CC[C@@]2(C)[C@@H](CC[C@]3(C)[C@@H]2C(=O)C=C2[C@@H]4[C@@H](C)[C@H](C)CC[C@]4(C)CC[C@]23C)[C@@]1(C)C(=O)OCn1cc(-c2ccccc2C(F)(F)F)nn1 [6d] | 2.37 | 2.37 ± 0.11 | – | – |
